Values after ≈ are worked out from the molar mass of the structure shown. Values joined by “and” are separate entries in the source; they are usually repeats but may differ in a detail not shown here. Equal values may be shown once. “Also recorded” adds a separate entry of the source. Read-outs that look alike come from different tables or passages of the source.
Assays:
[1] = molecular target: T1, MtMetAP1a (Mycobacterium tuberculosis, UniProt P9WK21); test: Coupled methionine-proline aminopeptidase assay (Met-Pro-pNA), IC50 determination; format: biochemical, M. tuberculosis; conditions: for inhibition of MtMetAP1a, in words: statement on MtMetAPs / both enzymes
T1 construct: made in house; host or cells: E. coli BL21 (DE3)
T1 sequence (P9WK21 whole entry): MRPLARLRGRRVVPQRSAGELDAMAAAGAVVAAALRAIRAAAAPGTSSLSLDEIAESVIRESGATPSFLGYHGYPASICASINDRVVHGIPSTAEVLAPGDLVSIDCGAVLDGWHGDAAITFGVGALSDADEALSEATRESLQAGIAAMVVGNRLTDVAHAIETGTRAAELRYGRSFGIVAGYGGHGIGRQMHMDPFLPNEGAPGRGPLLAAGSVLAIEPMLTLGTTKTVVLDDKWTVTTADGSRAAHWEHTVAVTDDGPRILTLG
Protocol: (§1) Determination of IC50 of Inhibitors of MtMetAPs and Clustering of Structural Classes of Inhibitors (ASDI-ISIS)
(§2) We determined the concentration needed for 50% inhibition in 96-well plates at final concentrations ranging from 100 μM-300 nM (for 81 compounds that were available in larger quantities). The total reaction volume was 50 μL and each reaction contained each MtMetAP1 respectively and 40 mM Hepes buffer (p.H 7.5), 100 mM NaCl, 100 μg/mL BSA, 0.1 U/mL ProAP, 1.5 μM CoCl2, 600 μM substrate (Met-Pro-pNA). The enzyme was pre-incubated with compounds for 20 min at room temperature followed by addition of substrate. The reaction was incubated at room temperature for 30 min and monitored at 405 nm on a spectrophotometer. The background hydrolysis was corrected and the data was fitted against the sigmoidal-dose response (variable slope) equation using GraphPad Prism software.

[2] = molecular target: T2, MtMetAP1c (Mycobacterium tuberculosis, UniProt P9WK19); test: as above; format: biochemical, M. tuberculosis; conditions: for inhibition of MtMetAP1c, in words: statement on MtMetAPs / both enzymes
T2 construct: made in house; host or cells: E. coli BL21
T2 sequence (P9WK19 whole entry): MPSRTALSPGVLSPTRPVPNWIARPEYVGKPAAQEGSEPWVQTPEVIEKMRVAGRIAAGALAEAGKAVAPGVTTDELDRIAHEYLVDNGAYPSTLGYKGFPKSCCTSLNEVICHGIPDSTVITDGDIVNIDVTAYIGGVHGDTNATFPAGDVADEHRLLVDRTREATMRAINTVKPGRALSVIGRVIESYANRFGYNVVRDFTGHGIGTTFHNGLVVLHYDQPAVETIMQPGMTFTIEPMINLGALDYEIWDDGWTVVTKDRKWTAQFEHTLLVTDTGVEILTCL
Protocol: as §1, §2

[3] = system: M. tuberculosis H37Rv; test: Minimum inhibitory concentration in replicating M. tuberculosis; format: cell-based; conditions: for MIC: Mycobacterium tuberculosis, H37RV, 336 h, read-out: M.I.C. (μg/mL) M. tuberculosis
[4] = system: Aged-cultured M. tuberculosis H37Ra; test: microbe, parasite or virus in culture; format: cell-based; conditions: for MIC: Mycobacterium tuberculosis, H37RA, read-out: M.I.C. (μg/mL) Aged-cultured M. tuberculosis
[5] = recombinant enzyme, 1.5 μM CoCl2, 600 μM Met-Pro-pNA, read-out: IC50 (μM) MtMetAP1a

## O=C1C(Br)=C(Br)C(=O)c2ccccc21 [Compound 20, 2,3-dibromo-1,4-naphthoquinone]
[1]; [5]
  IC50: ~1 µM and 1.14 µM
[2]; recombinant enzyme, 1.5 μM CoCl2, 600 μM Met-Pro-pNA, read-out: IC50 (μM) MtMetAP1c
  IC50: ~1 µM and 0.71 µM
[3]
  MIC: 10 to 25 µg/mL (≈ 31.7 to 79.1 µM)
[4]
  effectiveness against the aged-cultured form compared with the replicating form: equally effective

## COc1ccc(NC2=C(Cl)C(=O)c3ccccc3C2=O)cc1 [Compound 18]
[1]; [5]
  IC50: 15.9 ± 0.6 µM

## O=C1C(Cl)=C(Nc2cccc(C(F)(F)F)c2)C(=O)c2ccccc21 [Compound 12]
[1]; [5]
  IC50: > 30 µM

## O=C1C(Oc2ccc(F)cc2)=C(Oc2ccc(F)cc2)C(=O)c2ccccc21 [Compound 21]
[1]; [5]
  IC50: 4.93 ± 0.2 µM
[3]
  increase in MIC values relative to compounds 4 and 20: about a two-fold increase
  MIC: > 25 µg/mL

## O=C1C(Cl)=C(Nc2ccccc2)C(=O)c2ccccc21 [Compound 16]
[1]; [5]
  IC50: > 50 µM

## Cc1cc(C)cc(NC2=C(Cl)C(=O)c3ccccc3C2=O)c1 [Compound 19]
[1]; [5]
  IC50: 13.9 ± 1 µM

## Oc1c(Br)cc(Cl)c2cccnc12 [Compound 69, 7-bromo-5-chloroquinolin-8-ol]
[1]
  inhibition of MtMetAP1a, in words: low micromolar range; also recorded: most potent
[2]
  inhibition of MtMetAP1c, in words: low micromolar range; also recorded: most potent

## O=C1C(Cl)=C(Nc2cccc(F)c2)C(=O)c2ccccc21 [Compound 13]
[1]; [5]
  IC50: > 30 µM

## COc1ccc2c(c1)-c1nc(NC=NO)sc1CC2 [Amidoxime 49, N′-hydroxy-N-(8-methoxy-4,5-dihydronaphtho[1,2-d]thiazol-2-yl)formimidamide]
[2]; relative to amidoxime 48
  potency against MtMetAP1c when compared to 48: two times less potent

## O=C1C=CC(=O)c2c(O)cccc21 [Compound 23]
[1]; [5]
  IC50: > 50 µM

## O=C1C(Cl)=C(Oc2ccc(F)cc2)C(=O)c2ccccc21 [Compound 22]
[1]; [5]
  IC50: 7.58 ± 0.28 µM
[3]
  increase in MIC values relative to compounds 4 and 20: about a two-fold increase
  MIC: > 25 µg/mL

## CN1CCN(C2=C(Cl)C(=O)c3ccccc3C2=O)CC1 [Compound 7]
[1]; [5]
  IC50: > 100 µM

## Cc1ccc(Cl)cc1N1CCN(C2=C(Cl)C(=O)c3ccccc3C2=O)CC1 [Compound 10]
[1]; [5]
  IC50: > 100 µM

## CC1=CC(=O)c2c(O)cccc2C1=O [Compound 24]
[1]; [5]
  IC50: > 50 µM

## CCCN(CCC)C1=C(Cl)C(=O)c2ccccc2C1=O [Compound 26]
[1]; [5]
  IC50: > 50 µM

## O=C1C=C(O)C(=O)c2ccccc21 [Compound 25]
[1]; [5]
  IC50: > 50 µM

## O=C(NC1=C(Cl)C(=O)c2ccccc2C1=O)c1cc(C(F)(F)F)cc(C(F)(F)F)c1 [Compound 27]
[1]; [5]
  IC50: > 50 µM

## O=C1C(Cl)=C(N2CCN(c3cccc(Cl)c3)CC2)C(=O)c2ccccc21 [Compound 8]
[1]; [5]
  IC50: > 100 µM

## CN(C)c1ccc(NC2=C(Cl)C(=O)c3ccccc3C2=O)cc1 [Compound 15]
[1]; [5]
  IC50: > 30 µM

## O=C1C(Cl)=C(N2C(=O)c3c(Cl)c(Cl)c(Cl)c(Cl)c3C2=O)C(=O)c2ccccc21 [Compound 2]
[1]; [5]
  IC50: 4 ± 0.3 µM
[3]
  increase in MIC values relative to compounds 4 and 20: about a two-fold increase
  MIC: 25 µg/mL (≈ 52.6 µM)
[4]
  MIC: 23.8 µg/mL (≈ 50.1 µM)

## O=C1C(Cl)=C(NCc2ccc(Cl)cc2)C(=O)c2ccccc21 [Compound 6]
[1]; [5]
  IC50: > 100 µM

## NC1=C(Cl)C(=O)c2ccccc2C1=O [Compound 5]
[1]; [5]
  IC50: > 100 µM

## COC(=O)c1ccc(NC2=C(Cl)C(=O)c3ccccc3C2=O)cc1 [Compound 14]
[1]; [5]
  IC50: > 30 µM

## O=C1C(Cl)=C(Cl)C(=O)c2ccccc21 [Compound 4, 2,3-dichloro-1,4-naphthoquinone]
[1]
  IC50: 3.3 ± 0.3 µM
[2]
  IC50: 6.6 ± 1.2 µM
[3]
  M.I.C. (μg/mL) M. tuberculosis: 10 µg/mL
  MIC: 10 µg/mL (≈ 44 µM)
[4]
  effectiveness against the aged-cultured form compared with the replicating form: equally effective
  MIC: 5.7 to 11.4 µg/mL (≈ 25.1 to 50.2 µM)

## O=C1C(Cl)=C(N2CCN(c3ccc(Cl)c(Cl)c3)CC2)C(=O)c2ccccc21 [Compound 9]
[1]; [5]
  IC50: > 100 µM

## CC1=CC(=O)c2ccccc2C1=O [Compound 29]
[1]; [5]
  IC50: > 50 µM

## CC1=C(C/C=C(\C)CCCC(C)CCCC(C)C)C(=O)c2ccccc2C1=O (centres unmarked) [Compound 28]
[1]; [5]
  IC50: > 50 µM

## Cc1cccc(NC2=C(Cl)C(=O)c3ccccc3C2=O)c1 [Compound 17]
[1]; [5]
  IC50: 18.6 ± 6.1 µM

## ON=CNc1nc2c(s1)CCOc1cc3c(cc1-2)OCO3 [Amidoxime 58]
[1]; read-out: inhibitor of MtMetAP1a (potency in text)
  IC50: 0.76 µM
[1]; relative to amidoxime 48
  improvement over the lead-like hit 48, MtMetAP1a: 48 fold
[1]
  inhibition of MtMetAP1a, in words: very potent
[2]; read-out: inhibitor of MtMetAP1c (potency in text)
  IC50: 0.06 µM
[2]; relative to amidoxime 48
  improvement over the lead-like hit 48, MtMetAP1c: 7 fold
[2]
  inhibition of MtMetAP1c, in words: very potent

## O=C1C(Cl)=C(N2CCCCC2)C(=O)c2ccccc21 [Compound 3]
[1]; [5]
  IC50: 8 ± 1.3 µM
[3]
  MIC: > 25 µg/mL
[4]
  MIC: > 27.6 µg/mL
